The values that follow come from ChEMBL document CHEMBL1121420, “Preparation and antitumor activity of olivomycin A analogues” (1980).

The subject of assay [1] is Mus musculus. Description: Average change in weight is tested in mice at a dose of 2 mg/kg. In kind it is functional. On the set-up: unit not given here.
The subject of assay [2] is Mus musculus. Description: Average change in weight is tested in mice at a dose of 8 mg/kg. It is filed as functional. On the set-up: unit not given here.
Assay [3] relates to P388. Description: Tested on P-388 Leukemia for median survival time treated to median survival time control when administered intraperitoneally at a dose of 16 mg/kg. In kind it is functional, Mus musculus. The conditions noted are these: route intraperitoneal.
Assay [4] has as its system P388. Kind of assay: Tested on P-388 Leukemia for median survival time treated to median survival time control when administered intraperitoneally at a dose of 2 mg/kg. In kind it is functional, Mus musculus. To be noted: route intraperitoneal.
The subject of assay [5] is P388. Description: Tested on P-388 Leukemia for median survival time treated to median survival time control when administered intraperitoneally at a dose of 4 mg/kg. In kind it is functional, Mus musculus. To be noted: route intraperitoneal.
Assay [6] relates to P388. Kind of assay: Tested on P-388 Leukemia for median survival time treated to median survival time control when administered intraperitoneally at a dose of 8 mg/kg. It is filed as functional, Mus musculus. To be noted: route intraperitoneal.
In assay [7] the test system is Mus musculus. Kind of assay: Average change in weight is tested in mice at a dose of 16 mg/kg. On the set-up: unit not given here. It is filed as functional.
The test system of assay [8] is Mus musculus. Description: Average change in weight is tested in mice at a dose of 4 mg/kg. On the set-up: unit not given here. In kind it is functional.
The test system of assay [9] is Mus musculus. Kind of assay: Average change in weight is tested in mice at a dose of 1 mg/kg. In kind it is functional. On the set-up: unit not given here.
For assay [10], the system named is P388. Kind of assay: Tested on P-388 Leukemia for median survival time treated to median survival time control when administered intraperitoneally at a dose of 1 mg/kg. To be noted: route intraperitoneal. In kind it is functional, Mus musculus.
Assay [11] relates to Mus musculus. Kind of assay: Average change in weight is tested in mice at a dose of 0.5 mg/kg. In kind it is functional.
The test system of assay [12] is P388. Description: Tested on P-388 Leukemia for median survival time treated to median survival time control when administered intraperitoneally at a dose of 0.5 mg/kg. It is filed as functional, Mus musculus. To be noted: route intraperitoneal.

For orientation: T/C means the ratio of treated to control. In the case of `COC(C(=O)C(O)C(C)O)C1Cc2cc3cc(OC4CC(OC(C)=O)C(OC5CC(O)C(OC)C(C)O5)C(C)O4)c([N+](=O)[O-])c(O)c3c(O)c2C(=O)C1OC1CC(OC2CC(OC3CC(C)(O)C(OC(=O)C(C)C)C(C)O3)C(O)C(C)O2)C(O)C(C)O1` (stereo unspecified), the Activity amounted to 2.8 in the assay on Mus musculus [1], 3.5 in the assay on Mus musculus [2], 2.4 in the assay with Mus musculus [7] and 2 in the assay on Mus musculus [8]. In addition, the T/C turned out to be 100% in the assay with P388 [3], 100% with P388 [4], 110% with P388 [5] and 100% with P388 [6].

As to `COC(/C(=N/NC(N)=O)C(O)C(C)O)C1Cc2cc3cc(OC4CC(OC(C)=O)C(OC5CC(O)C(OC)C(C)O5)C(C)O4)cc(O)c3c(O)c2C(=O)C1OC1CC(OC2CC(OC3CC(C)(O)C(OC(=O)C(C)C)C(C)O3)C(O)C(C)O2)C(O)C(C)O1` (stereo unspecified), the Activity in the assay with Mus musculus [1] is 1.8; in the assay with Mus musculus [2], 1.2; with Mus musculus [7], -2.3; in the assay on Mus musculus [8], 1.3. Moreover, the T/C is listed as 105% in the assay with P388 [3], 85% with P388 [4], 110% in the assay on P388 [5] and 110% with P388 [6].

Take `COC(C(=O)C(O)C(C)O)C1Cc2cc3cc(OC4CC(OC(C)=O)C(OC5CC(O)C(OC)C(C)O5)C(C)O4)cc(O)c3c(O)c2CC1OC1CC(OC2CC(OC3CC(C)(O)C(OC(=O)C(C)C)C(C)O3)C(O)C(C)O2)C(O)C(C)O1` (stereo unspecified): the Activity stood at 1.1 with Mus musculus [9], 0.7 with Mus musculus [1], 1 in the assay on Mus musculus [2] and 0.7 with Mus musculus [8]. In addition, the T/C in the assay on P388 [10] stood at 110%; in the assay on P388 [4] it was 150%; with P388 [5] it was 140%; in the assay with P388 [6], 150%.

Regarding `COC(C(=O)C1OC2(CCCCC2)OC1C)C1Cc2cc3cc(OC4CC(OC(C)=O)C(OC5CC(O)C(OC)C(C)O5)C(C)O4)cc(O)c3c(O)c2C(=O)C1OC1CC(OC2CC(OC3CC(C)(O)C(OC(=O)C(C)C)C(C)O3)C(O)C(C)O2)C(O)C(C)O1` (stereo unspecified), the Activity amounted to 1 in the assay with Mus musculus [1], 0.2 with Mus musculus [2], 0.7 in the assay with Mus musculus [7] and 0 with Mus musculus [8]. Moreover, the T/C in the assay with P388 [3] amounted to 100%; with P388 [4], 111%; in the assay on P388 [5], 100%; with P388 [6], 139%.

`COC(C(=O)C(O)C(C)O)C1Cc2cc3cc(OC4CC(OC(C)=O)C(OC5CC(O)C(OC)C(C)O5)C(C)O4)cc(O)c3c(O)c2C(=O)C1OC1CC(OC2CC(OC3CC(C)(O)C(OC(=O)C(C)C)C(C)O3)C(O)C(C)O2)C(O)C(C)O1` (stereo unspecified): the Activity was determined as 1 in the assay on Mus musculus [11], 0.3 in the assay with Mus musculus [9], 0 in the assay on Mus musculus [1] and 0.4 in the assay with Mus musculus [8]. Besides, the T/C in the assay on P388 [12] is on record as 114%; in the assay with P388 [10], 130%; in the assay with P388 [4], 146%; with P388 [5] it was 157%.

Turning to `COC1C(O)CC(OC2C(C)OC(Oc3cc(O)c4c(O)c5c(cc4c3)CC(C(OC)C(O)C(O)C(C)O)C(OC3CC(OC4CC(OC6CC(C)(O)C(OC(=O)C(C)C)C(C)O6)C(O)C(C)O4)C(O)C(C)O3)C5=O)CC2OC(C)=O)OC1C` (stereo unspecified), the Activity with Mus musculus [1] stood at 1.1; in the assay with Mus musculus [2] it was 0.2; in the assay on Mus musculus [7], 0.9; with Mus musculus [8] it was 0.2. Besides, the T/C with P388 [3] is recorded as 130%; in the assay with P388 [4] it was 90%; in the assay with P388 [5], 125%; in the assay with P388 [6], 140%.

For `COC(C(=O)C(O)C(C)O)C1Cc2cc3cc(OC4CC(OC(C)=O)C(OC5CC(O)C(OC)C(C)O5)C(C)O4)c(Br)c(O)c3c(O)c2C(=O)C1OC1CC(OC2CC(OC3CC(C)(O)C(OC(=O)C(C)C)C(C)O3)C(O)C(C)O2)C(O)C(C)O1` (stereo unspecified), the Activity in the assay with Mus musculus [1] is recorded as 0.3; in the assay with Mus musculus [2], 0.1; in the assay on Mus musculus [7], 0.1; with Mus musculus [8], 1.2. The T/C worked out at 130% with P388 [3], 110% in the assay on P388 [4], 120% in the assay with P388 [5] and 150% with P388 [6].

Regarding `COC(/C(=N/Nc1ccccc1)C(O)C(C)O)C1Cc2cc3cc(OC4CC(OC(C)=O)C(OC5CC(O)C(OC)C(C)O5)C(C)O4)cc(O)c3c(O)c2C(=O)C1OC1CC(OC2CC(OC3CC(C)(O)C(OC(=O)C(C)C)C(C)O3)C(O)C(C)O2)C(O)C(C)O1` (stereo unspecified), the Activity was found to be 0.2 in the assay with Mus musculus [1], 0.5 in the assay on Mus musculus [2], 1.3 with Mus musculus [7] and 0.5 with Mus musculus [8]. Moreover, the T/C was determined as 140% in the assay on P388 [3], 120% in the assay with P388 [4], 120% with P388 [5] and 140% with P388 [6].

Take `COc1cc(OC2CC(OC(C)=O)C(OC3CC(O)C(OC)C(C)O3)C(C)O2)cc2cc3c(c(OC)c12)C(=O)C(OC1CC(OC2CC(OC4CC(C)(O)C(OC(=O)C(C)C)C(C)O4)C(O)C(C)O2)C(O)C(C)O1)C(C(OC)C(=O)C(O)C(C)O)C3` (stereo unspecified): the Activity in the assay with Mus musculus [1] stood at 0.3; with Mus musculus [2], 0.4; in the assay with Mus musculus [7], 0.9; with Mus musculus [8], 0.2. For the same compound, the T/C in the assay on P388 [3] turned out to be 140%; in the assay with P388 [4], 115%; in the assay on P388 [5], 130%; in the assay on P388 [6] it was 155%.

For `COC1C(O)CC(OC2C(C)OC(Oc3cc(O)c4c(O)c5c(cc4c3)CC(C(OC)C(O)C(O)C(C)O)C(OC3CC(OC4CC(OC6CC(C)(O)C(OC(=O)C(C)C)C(C)O6)C(O)C(C)O4)C(O)C(C)O3)C5)CC2OC(C)=O)OC1C` (stereo unspecified), the Activity was 5.3 in the assay with Mus musculus [1], 3.5 in the assay with Mus musculus [2], 0.5 in the assay on Mus musculus [7] and 3.7 in the assay on Mus musculus [8]. Moreover, the T/C was found to be 139% in the assay with P388 [3], 100% in the assay on P388 [4], 100% in the assay on P388 [5] and 106% in the assay with P388 [6].

Turning to `COC(C(=O)C1OC(C)(C)OC1C)C1Cc2cc3cc(OC4CC(OC(C)=O)C(OC5CC(O)C(OC)C(C)O5)C(C)O4)cc(O)c3c(O)c2C(=O)C1OC1CC(OC2CC(OC3CC(C)(O)C(OC(=O)C(C)C)C(C)O3)C(O)C(C)O2)C(O)C(C)O1` (stereo unspecified), the Activity was determined as 0.6 in the assay with Mus musculus [1], 0.8 in the assay with Mus musculus [2], 1.3 in the assay on Mus musculus [7] and 0.3 with Mus musculus [8]. The T/C amounted to 167% with P388 [3], 117% with P388 [4], 139% in the assay on P388 [5] and 156% with P388 [6].

In the case of `C/N=C(\C(O)C(C)O)C(OC)C1Cc2cc3cc(OC4CC(OC(C)=O)C(OC5CC(O)C(OC)C(C)O5)C(C)O4)cc(O)c3c(O)c2CC1OC1CC(OC2CC(OC3CC(C)(O)C(OC(=O)C(C)C)C(C)O3)C(O)C(C)O2)C(O)C(C)O1` (stereo unspecified), the Activity is 0.3 in the assay with Mus musculus [9], -0.3 in the assay on Mus musculus [1], -3.3 in the assay with Mus musculus [2] and 0.4 in the assay on Mus musculus [8]. Also, the T/C amounted to 125% with P388 [10], 140% in the assay on P388 [4], 110% with P388 [5] and 115% in the assay with P388 [6].
